Source: ChEMBL document CHEMBL6121051, “Dendritic Antifungal Peptides as Potent Agents against Drug-Resistant Candida albicans and Biofilm” (J Med Chem, 2025)
In brackets after ≈: the same amount, converted by molar mass. Activity calls are given as the source filed them. No cut-off for these calls is given here. Positions of bridges follow the written chain, without caps; N, C: chain ends. Residues, ends and D or L forms follow the SMILES beside them. Chains are numbered I, II in the order given. *: point of attachment. Butyryl = CCCC(=O)*

Assays:
Candida albicans [1] = assay: Antifungal activity against Candida albicans assessed as inhibition of fungal growth compound preincubated with upto 8 mg/ml proteinase K for 4 hrs followed by incubation with fungus for 48 hrs; assay type: functional, organism-based
Candida albicans [2] = assay: Antifungal activity against Candida albicans SP 3931 assessed as inhibition of fungal growth incubated for 48 hrs; assay type: functional
Candida albicans [3] = assay: Antifungal activity against Candida albicans SP 3903 assessed as inhibition of fungal growth incubated for 48 hrs; assay type: functional
Cell wall [4] = assay: Induction of cell wall permeability in Candida albicans 2.2086 assessed as increase in cell wall damage by NPN probe based fluorescence analysis; assay type: subcellular; settings: dose 4-128 µM
Candida albicans [5] = assay: Antifungal activity against Candida albicans assessed as inhibition of fungal growth incubated for 48 hrs in presence of CaCl2; assay type: functional, organism-based
Candida albicans [6] = assay: Antifungal activity against Candida albicans cgmcc 2.2086 assessed as inhibition of fungal growth incubated for 48 hrs; assay type: functional
Candida albicans [7] = assay: Antifungal activity against Candida albicans assessed as inhibition of fungal growth incubated for 48 hrs in presence of FeCl3; assay type: functional, organism-based
Candida albicans [8] = assay: Inhibition of biofilm formation of fluconazole-resistant Candida albicans 56214 at 8 uM incubated for 48 hrs by crystal violet staining based analysis; assay type: functional
[9] = Drug localization in Candida albicans cell membrane using FITC-labeled compound at 8 uM incubated for 3 hrs by DAPI staining based fluorescence microscopy; assay type: ADME, cell membranes
Candida albicans [10] = assay: (§1) Antifungal activity against fluconazole-resistant Candida albicans 56214 infected in ICR mouse assessed as reduction in TNF-alpha expression in skin wound at 5 mg/ml administered topically bid for 3 days starting at 12 hrs post-infection and measured after 7 days by immunofluorescence analysis; assay type: functional, organism-based; settings: time 7.0 day
Candida albicans [11] = assay: Antifungal activity against Candida albicans 2.3989 assessed as inhibition of fungal growth incubated for 48 hrs; assay type: functional
Candida albicans [12] = assay: as §1, with “oxidative stress by measuring decrease in ROS accumulation” for “TNF-alpha expression”, “wounds” for “wound”, “fluorescence staining based” for “immunofluorescence”; assay type: functional, organism-based; settings: time 7.0 day
HEK-293T [13] = assay: Cytotoxicity against human HEK293T cells assessed as damage to cells at 4XMIC incubated for 8 hrs by Calcein-AM/PI staining based fluorescence microscopy; assay type: toxicity, cell-based
Candida albicans [14] = assay: Antifungal activity against fluconazole-resistant Candida albicans 56214 infected in ICR mouse assessed as reduction in IL-6 expression in skin wound at 5 mg/ml administered topically bid for 3 days starting at 12 hrs post-infection and measured after 7 days by immunofluorescence analysis; assay type: functional, organism-based; settings: time 7.0 day
Candida albicans [15] = assay: Antifungal activity against Candida albicans assessed as inhibition of fungal growth preincubated with 8 mg/ml proteinase K for 8 hrs followed by incubation with fungus for 48 hrs; assay type: functional, organism-based
Candida albicans [16] = assay: Fungicidal activity against fluconazole-resistant Candida albicans 56214 assessed as killing effect within biofilms by measuring increase in red fluorescence intensity at 8 uM incubated for 3 hrs by SYTO9/PI staining based fluorescence microscopy; assay type: functional
Cell wall [17] = assay: Induction of cell wall permeability in Candida albicans 2.2086 at 16 uM by NPN probe based fluorescence analysis; assay type: subcellular
Candida albicans [18] = assay: Fungicidal activity against fluconazole-resistant Candida albicans 56214 assessed as killing effect by measuring orange fluorescence at 8 uM incubated for 1 hr by SYTO9/PI staining based fluorescence microscopy; assay type: functional
Candida albicans [19] = assay: Fungicidal killing kinetic activity against fluconazole-resistant Candida albicans 56214 assessed as killing of fungi at 1XMIC to 4XMIC incubated with fungus in PBS solution for 3 mins followed by culturing on YPD plate for 48 hrs; assay type: functional, organism-based; settings: time 2883.0 min
Candida albicans [20] = assay: Antifungal activity against Candida albicans 14936 assessed as inhibition of fungal growth incubated for 48 hrs; assay type: functional
Candida albicans [21] = assay: Antifungal activity against Candida albicans assessed as inhibition of fungal growth compound preincubated with upto 4 mg/ml trypsin for 4 hrs followed by incubation with fungus for 48 hrs; assay type: functional, organism-based
Candida albicans [22] = assay: Antifungal activity against Candida albicans 58288 assessed as inhibition of fungal growth incubated for 48 hrs; assay type: functional
Candida albicans [23] = assay: Antifungal activity against Candida albicans assessed as inhibition of fungal growth incubated for 48 hrs in presence of KCl; assay type: functional, organism-based
Candida albicans [24] = assay: Antifungal activity against Candida albicans assessed as inhibition of fungal growth incubated for 48 hrs in presence of NH4Cl; assay type: functional, organism-based
[25] = Drug penetration into mature fluconazole-resistant Candida albicans 56214 biofilms assessed as increase in green fluorescence intensity at 8 to 16 uM using FITC-labeled compound incubated in dark for 3 hrs by DAPI staining based laser confocal microscopy; assay type: ADME; settings: dose 8-16 µM
[26] = Drug localization in Candida albicans cell membrane using FITC-labeled compound by FITC/PI staining based confocal microscopy; assay type: ADME, cell membranes
Candida albicans [27] = assay: Antifungal activity against fluconazole-resistant Candida albicans 56214 infected in ICR mouse assessed as log reduction in fungal burden on the infected skin at 5 mg/ml administered topically bid for 3 days starting at 12 hrs post-infection and measured after 7 days; assay type: functional; settings: time 7 day
Candida albicans [28] = assay: Antifungal activity against Candida albicans assessed as inhibition of fungal growth incubated for 48 hrs in presence of ZnCl2; assay type: functional, organism-based
Candida albicans [29] = assay: Antifungal activity against Candida albicans 17546 assessed as inhibition of fungal growth incubated for 48 hrs; assay type: functional
Candida albicans [30] = assay: Antifungal activity against fluconazole-resistant Candida albicans 56214 infected in ICR mouse assessed as wound healing with appearance of new skin tissue at 5 mg/ml administered topically bid for 3 days starting at 12 hrs post-infection and measured for 6 days; assay type: functional, organism-based; settings: time 6.0 day
Candida albicans [31] = assay: Antifungal activity against fluconazole-resistant Candida albicans 56214 assessed as inhibition of fungal growth incubated for 48 hrs; assay type: functional
Candida albicans [32] = assay: Antifungal activity against Candida albicans assessed as inhibition of fungal growth preincubated with 4 mg/ml trypsin for 8 hrs followed by incubation with fungus for 48 hrs; assay type: functional, organism-based
Cell membrane [33] = assay: Induction of cell membrane damage in Candida albicans assessed as scattered distribution of cell wall and cell membrane structures, loss of integrity and leakage of contents at 16 uM incubated for 1 hr by transmission electron microscopy; assay type: subcellular
Cell membrane [34] = assay: Induction of cell membrane damage in Candida albicans assessed as scattered distribution of cell wall and cell membrane structures, loss of integrity and leakage of contents at 16 uM incubated for 1 hr by scanning electron microscopy; assay type: subcellular
Cell membrane [35] = assay: Disruption of cytoplasmic membrane in Candida albicans 2.2086 assessed as increase in membrane depolarization at 1XMIC to 4XMIC measured after 500 secs by diSC3-5 dye based potentiometric analysis; assay type: subcellular; settings: time 500.0 sec
Candida albicans [36] = assay: Antifungal activity against fluconazole-resistant Candida albicans 56214 infected in ICR mouse assessed as reduction in severity of skin infection at 5 mg/ml administered topically bid for 3 days starting at 12 hrs post-infection and measured after 7 days by PAS staining based analysis; assay type: functional, organism-based; settings: time 7.0 day
Candida albicans [37] = assay: Induction of ROS production in Candida albicans 2.2086 assessed as increase in intracellular ROS accumulation at <4 uM incubated for 1 hr by DCFH-DA staining based fluorescence analysis; assay type: functional, organism-based
[38] = Toxicity against human RBC assessed as hemolysis rate at 128 ug/ml incubated for 1 hr; assay type: cell-based, Erythrocyte; settings: red blood cells (RBC), dose 128 µg/ml, read-out: Activity
Candida albicans [39] = assay: Antifungal activity against Candida albicans assessed as inhibition of fungal growth compound preincubated with upto 8 mg/ml chymotrypsin for 4 hrs followed by incubation with fungus for 48 hrs; assay type: functional, organism-based
Candida albicans [40] = assay: Antifungal activity against Candida albicans SP 3902 assessed as inhibition of fungal growth incubated for 48 hrs; assay type: functional
Candida albicans [41] = assay: Antifungal activity against Candida albicans assessed as inhibition of fungal growth incubated for 48 hrs in presence of MgCl2; assay type: functional, organism-based
Candida albicans [42] = assay: Antifungal activity against Candida albicans assessed as inhibition of fungal growth preincubated with 8 mg/ml chymotrypsin for 8 hrs followed by incubation with fungus for 48 hrs; assay type: functional, organism-based
Candida albicans [43] = assay: Induction of morphological changes in Candida albicans 2.2086 at 8 to 16 uM incubated for 2 hrs by fluorescence cell imaging system; assay type: functional, organism-based; settings: dose 8-16 µM
[44] = Cytotoxicity against human HEK293T cells assessed as cell survival rate at 128 ug/ml incubated for 4 hrs by MTT assay; assay type: toxicity, cell-based, HEK-293T; settings: dose 128 µg/ml, read-out: Activity
Cell membrane [45] = assay: Disruption of cytoplasmic membrane in Candida albicans 2.2086 assessed as increase in membrane depolarization at 1XMIC by diSC3-5 dye based potentiometric analysis
HEK-293T [46] = assay: Cytotoxicity against human HEK293T cells assessed as cell viability at 8 to 128 ug/ml incubated for 4 hrs by MTT assay; assay type: toxicity, cell-based; settings: dose 8-128 µg/ml
Candida albicans [47] = assay: Antifungal activity against fluconazole-resistant Candida albicans 56214 infected in ICR mouse assessed as elimination of fungal hyphae on the infected skin at 5 mg/ml administered topically bid for 3 days starting at 12 hrs post-infection and measured after 7 days by PAS staining; assay type: functional, organism-based; settings: time 7.0 day
RAW264.7 = assay: Cytotoxicity against mouse RAW264.7 cells assessed as damage to cells at 4XMIC incubated for 8 hrs by Calcein-AM/PI staining based fluorescence microscopy; assay type: toxicity, cell-based; settings: raw264.7, 8 h
Candida albicans [48] = assay: Antifungal activity against Candida albicans assessed as inhibition of fungal growth incubated for 48 hrs in presence of NaCl; assay type: functional, organism-based

CCCC(=O)NCC(=O)NCC(=O)NCC(=O)N[C@@H](CCCCNC(=O)[C@@H]1CCCN1C(=O)[C@H](CCCNC(=N)N)NC(=O)[C@@H]1CCCN1C(=O)[C@H](CCCNC(=N)N)NC(=O)[C@@H]1CCCN1C(=O)[C@@H](N)CCCNC(=N)N)C(=O)N[C@@H](CCCCNC(=O)[C@@H]1CCCN1C(=O)[C@H](CCCNC(=N)N)NC(=O)[C@@H]1CCCN1C(=O)[C@H](CCCNC(=N)N)NC(=O)[C@@H]1CCCN1C(=O)[C@@H](N)CCCNC(=N)N)C(=O)N[C@@H](CCCNC(=N)N)C(=O)N1CCC[C@H]1C(=O)N[C@@H](CCCNC(=N)N)C(=O)N1CCC[C@H]1C(=O)N[C@@H](CCCNC(=N)N)C(=O)N1CCC[C@H]1C(N)=O (I: Butyryl-GGGKKRPRPRP-NH2 / II: H-RPRPRP / III: H-RPRPRP; amide I:4-II:C, I:5-III:C)
Activity (Candida albicans [1]): Active
MIC (Candida albicans [2]): 4 µM (≈ 11.2 µg/mL)
MIC (Candida albicans [3]): 4 µM (≈ 11.2 µg/mL)
Activity (Cell wall [4]): Dose-dependent-effect
Activity (Candida albicans [5]): Active
MIC (Candida albicans [6]): 4 µM (≈ 11.2 µg/mL)
Activity (Candida albicans [7]): Active
inhibition at 8 µM (Candida albicans [8]): 100%
Drug uptake [9]: > 90%
Activity (Candida albicans [10]): Active
MIC (Candida albicans [11]): 4 µM (≈ 11.2 µg/mL)
Activity (Candida albicans [12]): Active
Activity (HEK-293T [13]): Non-toxic
Activity (Candida albicans [14]): Active
Activity (Candida albicans [15]): Active
Activity (Candida albicans [16]): >90%
Activity (Cell wall [17]): 100%
Activity (Candida albicans [18]): 90%
Activity (Candida albicans [19]): Active
MIC (Candida albicans [20]): 4 µM (≈ 11.2 µg/mL)
Activity (Candida albicans [21]): Active
MIC (Candida albicans [22]): 8 µM (≈ 22.4 µg/mL)
Activity (Candida albicans [23]): Active
Activity (Candida albicans [24]): Active
Drug uptake [25]: Active
Drug uptake [26]: Active
log(activity) (Candida albicans [27]): ~1.7
Activity (Candida albicans [28]): Active
MIC (Candida albicans [29]): 16 µM (≈ 44.7 µg/mL)
Activity (Candida albicans [30]): Active
MIC (Candida albicans [31]): 4 µM (≈ 11.2 µg/mL)
Activity (Candida albicans [32]): Active
Activity (Cell membrane [33]): Active
Activity (Cell membrane [34]): Active
Activity (Cell membrane [35]): Active
Activity (Candida albicans [36]): Active
Activity (Candida albicans [37]): Active
hemolysis at 1 h, 128 ug/ml [38]: < 2%
Activity (Candida albicans [39]): Active
MIC (Candida albicans [40]): 4 µM (≈ 11.2 µg/mL)
Activity (Candida albicans [41]): Active
Activity (Candida albicans [42]): Active
Activity (Candida albicans [43]): Active
viability at 4 h, 128 ug/ml [44]: 95%
Activity (Cell membrane [45]): Active; Effective Depolarization Observed
Activity (HEK-293T [46]): Non-toxic
Activity (Candida albicans [47]): Active
Activity (RAW264.7): Non-toxic
Activity (Candida albicans [48]): Active
